What was measured:
[1] = system: Tyrosine-protein kinase ABL1 (Homo sapiens), P00519 [F317L]; details: Compound concentration 1000.0 nM
[2] = biological target: Tyrosine-protein kinase ABL1 (Homo sapiens) (UniProt P00519); details: Compound concentration 1000.0 nM
[3] = biological target: Tyrosine-protein kinase ABL2 (Homo sapiens) (UniProt P42684); details: Compound concentration 1000.0 nM
[4] = biological target: 5'-AMP-activated protein kinase catalytic subunit alpha-2 (Homo sapiens) (UniProt P54646); details: Compound concentration 1000.0 nM
[5] = biological target: BMP-2-inducible protein kinase (Homo sapiens) (UniProt Q9NSY1); details: Compound concentration 1000.0 nM
[6] = biological target: Calcium/calmodulin-dependent protein kinase type II subunit beta (Homo sapiens) (UniProt Q13554); details: Compound concentration 1000.0 nM
Chain of Calcium/calmodulin-dependent protein kinase type II subunit beta (Homo sapiens) (Q13554 whole entry): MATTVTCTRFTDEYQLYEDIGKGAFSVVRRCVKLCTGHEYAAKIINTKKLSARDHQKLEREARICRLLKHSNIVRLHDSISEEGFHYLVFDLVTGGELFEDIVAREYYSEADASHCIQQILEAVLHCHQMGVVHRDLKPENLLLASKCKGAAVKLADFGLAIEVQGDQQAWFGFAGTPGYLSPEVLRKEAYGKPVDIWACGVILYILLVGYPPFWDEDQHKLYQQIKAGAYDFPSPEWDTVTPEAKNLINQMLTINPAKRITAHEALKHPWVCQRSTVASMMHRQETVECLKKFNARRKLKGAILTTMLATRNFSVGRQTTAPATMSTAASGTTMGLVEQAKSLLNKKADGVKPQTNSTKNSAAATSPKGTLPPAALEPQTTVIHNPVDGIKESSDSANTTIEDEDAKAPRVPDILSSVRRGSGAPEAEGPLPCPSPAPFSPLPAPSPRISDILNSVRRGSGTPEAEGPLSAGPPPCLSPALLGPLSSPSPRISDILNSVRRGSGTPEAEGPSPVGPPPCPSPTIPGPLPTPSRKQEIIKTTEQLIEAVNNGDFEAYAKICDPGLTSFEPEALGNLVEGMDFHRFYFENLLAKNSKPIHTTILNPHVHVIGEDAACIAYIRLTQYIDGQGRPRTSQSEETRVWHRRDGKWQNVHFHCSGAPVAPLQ

[7] = biological target: Calcium/calmodulin-dependent protein kinase type II subunit delta (Homo sapiens) (UniProt Q13557); details: Compound concentration 1000.0 nM
Chain of Calcium/calmodulin-dependent protein kinase type II subunit delta (Homo sapiens) (Q13557 whole entry): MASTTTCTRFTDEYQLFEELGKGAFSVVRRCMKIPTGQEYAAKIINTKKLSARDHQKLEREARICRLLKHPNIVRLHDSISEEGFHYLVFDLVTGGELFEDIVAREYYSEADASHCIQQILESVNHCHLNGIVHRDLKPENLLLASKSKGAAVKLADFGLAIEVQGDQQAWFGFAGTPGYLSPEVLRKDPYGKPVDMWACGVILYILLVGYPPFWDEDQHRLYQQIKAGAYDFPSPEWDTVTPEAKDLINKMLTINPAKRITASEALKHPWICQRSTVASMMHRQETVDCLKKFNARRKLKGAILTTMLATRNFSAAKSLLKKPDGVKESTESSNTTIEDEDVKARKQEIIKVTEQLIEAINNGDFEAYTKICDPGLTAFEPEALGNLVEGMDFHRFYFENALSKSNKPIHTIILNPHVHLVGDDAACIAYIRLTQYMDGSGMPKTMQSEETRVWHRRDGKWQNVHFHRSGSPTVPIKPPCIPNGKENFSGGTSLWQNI

[8] = biological target: Cyclin-dependent kinase-like 5 (Homo sapiens) (UniProt O76039); details: Compound concentration 1000.0 nM
[9] = biological target: Epithelial discoidin domain-containing receptor 1 (Homo sapiens) (UniProt Q08345); details: Compound concentration 1000.0 nM
[10] = biological target: Epidermal growth factor receptor (Homo sapiens) (UniProt P00533); details: Compound concentration 1000.0 nM
[11] = biological target: Ephrin type-B receptor 1 (Homo sapiens) (UniProt P54762); details: Compound concentration 1000.0 nM
[12] = biological target: Mitogen-activated protein kinase 7 (Homo sapiens) (UniProt Q13164); details: Compound concentration 1000.0 nM
[13] = biological target: Glycogen synthase kinase-3 alpha (Homo sapiens) (UniProt P49840); details: Compound concentration 1000.0 nM
[14] = biological target: Homeodomain-interacting protein kinase 3 (Homo sapiens) (UniProt Q9H422); details: Compound concentration 1000.0 nM
[15] = biological target: Inhibitor of nuclear factor kappa-B kinase subunit alpha (Homo sapiens) (UniProt O15111); details: Compound concentration 1000.0 nM
Chain of Inhibitor of nuclear factor kappa-B kinase subunit alpha (Homo sapiens) (O15111 whole entry): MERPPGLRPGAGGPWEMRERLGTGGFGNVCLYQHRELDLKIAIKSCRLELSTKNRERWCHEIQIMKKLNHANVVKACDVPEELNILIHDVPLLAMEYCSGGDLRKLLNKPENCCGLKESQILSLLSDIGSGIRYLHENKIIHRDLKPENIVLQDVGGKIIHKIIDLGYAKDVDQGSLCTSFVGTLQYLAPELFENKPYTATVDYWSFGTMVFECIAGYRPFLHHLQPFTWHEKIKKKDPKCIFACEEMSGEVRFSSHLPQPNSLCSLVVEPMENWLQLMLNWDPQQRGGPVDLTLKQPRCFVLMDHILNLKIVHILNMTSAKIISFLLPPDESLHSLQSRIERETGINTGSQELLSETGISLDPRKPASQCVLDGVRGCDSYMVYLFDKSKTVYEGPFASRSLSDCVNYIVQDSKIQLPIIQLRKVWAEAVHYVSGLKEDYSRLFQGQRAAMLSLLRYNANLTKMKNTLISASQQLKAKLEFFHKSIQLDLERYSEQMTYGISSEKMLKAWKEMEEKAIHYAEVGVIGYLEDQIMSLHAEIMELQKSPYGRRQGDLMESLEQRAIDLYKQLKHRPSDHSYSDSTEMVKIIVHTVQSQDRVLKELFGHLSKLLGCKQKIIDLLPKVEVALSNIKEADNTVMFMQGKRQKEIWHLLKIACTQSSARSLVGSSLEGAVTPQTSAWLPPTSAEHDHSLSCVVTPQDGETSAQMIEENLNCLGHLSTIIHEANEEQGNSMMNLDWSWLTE

[16] = biological target: Serine/threonine-protein kinase LATS1 (Homo sapiens) (UniProt O95835); details: Compound concentration 1000.0 nM
[17] = biological target: Leucine-rich repeat serine/threonine-protein kinase 2 (Homo sapiens) (UniProt Q5S007); details: Compound concentration 1000.0 nM
[18] = biological target: Mitogen-activated protein kinase kinase kinase 13 (Homo sapiens) (UniProt O43283); details: Compound concentration 1000.0 nM
[19] = biological target: Mitogen-activated protein kinase kinase kinase 15 (Homo sapiens) (UniProt Q6ZN16); details: Compound concentration 1000.0 nM
[20] = biological target: Dual specificity mitogen-activated protein kinase kinase 4 (Homo sapiens) (UniProt P45985); details: Compound concentration 1000.0 nM
Chain of Dual specificity mitogen-activated protein kinase kinase 4 (Homo sapiens) (P45985 whole entry): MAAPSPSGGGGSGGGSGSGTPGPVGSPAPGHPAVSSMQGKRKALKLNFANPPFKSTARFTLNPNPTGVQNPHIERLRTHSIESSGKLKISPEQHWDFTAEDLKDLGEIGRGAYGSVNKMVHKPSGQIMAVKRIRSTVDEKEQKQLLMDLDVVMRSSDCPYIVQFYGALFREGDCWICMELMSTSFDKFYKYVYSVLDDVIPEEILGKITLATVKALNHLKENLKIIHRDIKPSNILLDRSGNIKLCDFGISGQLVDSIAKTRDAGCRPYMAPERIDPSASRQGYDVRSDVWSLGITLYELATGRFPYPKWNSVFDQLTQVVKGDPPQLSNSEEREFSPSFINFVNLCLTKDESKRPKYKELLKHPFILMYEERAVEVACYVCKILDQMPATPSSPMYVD

[21] = biological target: Myosin light chain kinase (Homo sapiens) (UniProt Q32MK0); details: Compound concentration 1000.0 nM
[22] = biological target: Mitogen-activated protein kinase kinase kinase 10 (Homo sapiens) (UniProt Q02779); details: Compound concentration 1000.0 nM
[23] = biological target: Serine/threonine-protein kinase mTOR (Homo sapiens) (UniProt P42345); details: Compound concentration 1000.0 nM
[24] = biological target: Myosin-IIIb (Homo sapiens) (UniProt Q8WXR4); details: Compound concentration 1000.0 nM
[25] = biological target: Mitogen-activated protein kinase 14 (Homo sapiens) (UniProt Q16539); details: Compound concentration 1000.0 nM
[26] = biological target: Serine/threonine-protein kinase PAK 1 (Homo sapiens) (UniProt Q13153); details: Compound concentration 1000.0 nM
Chain of Serine/threonine-protein kinase PAK 1 (Homo sapiens) (Q13153 whole entry, the tested form may be a part): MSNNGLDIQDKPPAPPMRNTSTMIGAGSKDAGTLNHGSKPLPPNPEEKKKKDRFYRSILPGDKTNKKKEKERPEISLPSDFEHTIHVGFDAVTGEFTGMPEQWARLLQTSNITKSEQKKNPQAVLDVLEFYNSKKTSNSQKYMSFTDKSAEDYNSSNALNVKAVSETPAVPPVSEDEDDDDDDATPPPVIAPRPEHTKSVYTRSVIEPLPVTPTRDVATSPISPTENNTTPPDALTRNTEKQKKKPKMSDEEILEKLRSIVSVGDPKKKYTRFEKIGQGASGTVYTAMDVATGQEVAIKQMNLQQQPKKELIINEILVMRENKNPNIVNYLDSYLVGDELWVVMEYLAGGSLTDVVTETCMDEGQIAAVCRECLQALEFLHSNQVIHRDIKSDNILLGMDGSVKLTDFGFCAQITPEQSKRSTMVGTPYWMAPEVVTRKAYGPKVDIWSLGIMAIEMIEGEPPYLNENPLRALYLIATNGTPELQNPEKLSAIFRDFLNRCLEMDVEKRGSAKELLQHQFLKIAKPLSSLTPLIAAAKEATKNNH

[27] = biological target: Phosphatidylinositol 3-kinase C2 domain-containing subunit gamma (Homo sapiens) (UniProt O75747); details: Compound concentration 1000.0 nM
[28] = system: Phosphatidylinositol 4,5-bisphosphate 3-kinase catalytic subunit alpha isoform (Homo sapiens), P42336 [C420R]; details: Compound concentration 1000.0 nM
[29] = system: Phosphatidylinositol 4,5-bisphosphate 3-kinase catalytic subunit alpha isoform (Homo sapiens), P42336 [Q546K]; details: Compound concentration 1000.0 nM
[30] = biological target: 1-phosphatidylinositol 3-phosphate 5-kinase (Homo sapiens) (UniProt Q9Y2I7); details: Compound concentration 1000.0 nM
[31] = biological target: Protein kinase C iota type (Homo sapiens) (UniProt P41743); details: Compound concentration 1000.0 nM
[32] = system: Proto-oncogene tyrosine-protein kinase receptor Ret (Homo sapiens), P07949 [V804M]; details: Compound concentration 1000.0 nM
[33] = biological target: Ribosomal protein S6 kinase alpha-4 (Homo sapiens) (UniProt O75676); details: Compound concentration 1000.0 nM
Chain of Ribosomal protein S6 kinase alpha-4 (Homo sapiens) (O75676 whole entry, looked up): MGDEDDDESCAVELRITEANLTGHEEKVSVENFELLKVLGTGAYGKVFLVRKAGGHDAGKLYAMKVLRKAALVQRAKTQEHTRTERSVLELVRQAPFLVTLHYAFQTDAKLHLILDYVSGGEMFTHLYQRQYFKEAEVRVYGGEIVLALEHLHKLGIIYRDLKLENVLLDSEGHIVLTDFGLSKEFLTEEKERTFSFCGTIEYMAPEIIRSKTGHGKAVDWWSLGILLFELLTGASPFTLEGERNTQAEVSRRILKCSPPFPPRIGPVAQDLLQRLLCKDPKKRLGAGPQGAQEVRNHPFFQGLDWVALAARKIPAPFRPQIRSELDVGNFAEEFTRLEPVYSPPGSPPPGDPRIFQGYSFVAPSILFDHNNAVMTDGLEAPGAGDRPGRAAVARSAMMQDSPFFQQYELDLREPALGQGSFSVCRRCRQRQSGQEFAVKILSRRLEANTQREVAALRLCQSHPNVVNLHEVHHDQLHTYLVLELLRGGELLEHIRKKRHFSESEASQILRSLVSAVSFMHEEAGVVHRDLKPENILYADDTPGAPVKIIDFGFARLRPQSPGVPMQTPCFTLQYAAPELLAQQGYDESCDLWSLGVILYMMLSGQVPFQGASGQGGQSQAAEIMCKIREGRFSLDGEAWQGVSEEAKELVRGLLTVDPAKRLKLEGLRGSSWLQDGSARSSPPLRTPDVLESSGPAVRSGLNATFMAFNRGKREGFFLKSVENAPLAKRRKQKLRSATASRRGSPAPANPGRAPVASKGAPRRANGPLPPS

[34] = biological target: Ribosomal protein S6 kinase alpha-4 (Homo sapiens) (UniProt O75676); details: Compound concentration 1000.0 nM; remark: listed apart in the source
[35] = biological target: Ribosomal protein S6 kinase alpha-1 (Homo sapiens) (UniProt Q15418); details: Compound concentration 1000.0 nM
[36] = biological target: Ribosomal protein S6 kinase alpha-6 (Homo sapiens) (UniProt Q9UK32); details: Compound concentration 1000.0 nM
[37] = biological target: STE20/SPS1-related proline-alanine-rich protein kinase (Homo sapiens) (UniProt Q9UEW8); details: Compound concentration 1000.0 nM
[38] = biological target: Tyrosine-protein kinase SYK (Homo sapiens) (UniProt P43405); details: Compound concentration 1000.0 nM
[39] = biological target: Serine/threonine-protein kinase TAO1 (Homo sapiens) (UniProt Q7L7X3); details: Compound concentration 1000.0 nM
[40] = biological target: TGF-beta receptor type-2 (Homo sapiens) (UniProt P37173); details: Compound concentration 1000.0 nM
[41] = biological target: Serine/threonine-protein kinase TNNI3K (Homo sapiens) (UniProt Q59H18); details: Compound concentration 1000.0 nM
[42] = biological target: NT-3 growth factor receptor (Homo sapiens) (UniProt Q16288); details: Compound concentration 1000.0 nM
[43] = biological target: Phosphatidylinositol 3-kinase catalytic subunit type 3 (Homo sapiens) (UniProt Q8NEB9); details: Compound concentration 1000.0 nM
[44] = biological target: Serine/threonine-protein kinase WNK2 (Homo sapiens) (UniProt Q9Y3S1); details: Compound concentration 1000.0 nM
[45] = biological target: 5-hydroxytryptamine receptor 2B (Homo sapiens, UniProt P41595); experiment: GPCRScan assay: inhibition of 5-HT2B; parameters: radioligand conc. used [nm] 1.0 – 2.0, parental cells stable HEK

Chain of Tyrosine-protein kinase ABL2 (Homo sapiens) (P42684 whole entry): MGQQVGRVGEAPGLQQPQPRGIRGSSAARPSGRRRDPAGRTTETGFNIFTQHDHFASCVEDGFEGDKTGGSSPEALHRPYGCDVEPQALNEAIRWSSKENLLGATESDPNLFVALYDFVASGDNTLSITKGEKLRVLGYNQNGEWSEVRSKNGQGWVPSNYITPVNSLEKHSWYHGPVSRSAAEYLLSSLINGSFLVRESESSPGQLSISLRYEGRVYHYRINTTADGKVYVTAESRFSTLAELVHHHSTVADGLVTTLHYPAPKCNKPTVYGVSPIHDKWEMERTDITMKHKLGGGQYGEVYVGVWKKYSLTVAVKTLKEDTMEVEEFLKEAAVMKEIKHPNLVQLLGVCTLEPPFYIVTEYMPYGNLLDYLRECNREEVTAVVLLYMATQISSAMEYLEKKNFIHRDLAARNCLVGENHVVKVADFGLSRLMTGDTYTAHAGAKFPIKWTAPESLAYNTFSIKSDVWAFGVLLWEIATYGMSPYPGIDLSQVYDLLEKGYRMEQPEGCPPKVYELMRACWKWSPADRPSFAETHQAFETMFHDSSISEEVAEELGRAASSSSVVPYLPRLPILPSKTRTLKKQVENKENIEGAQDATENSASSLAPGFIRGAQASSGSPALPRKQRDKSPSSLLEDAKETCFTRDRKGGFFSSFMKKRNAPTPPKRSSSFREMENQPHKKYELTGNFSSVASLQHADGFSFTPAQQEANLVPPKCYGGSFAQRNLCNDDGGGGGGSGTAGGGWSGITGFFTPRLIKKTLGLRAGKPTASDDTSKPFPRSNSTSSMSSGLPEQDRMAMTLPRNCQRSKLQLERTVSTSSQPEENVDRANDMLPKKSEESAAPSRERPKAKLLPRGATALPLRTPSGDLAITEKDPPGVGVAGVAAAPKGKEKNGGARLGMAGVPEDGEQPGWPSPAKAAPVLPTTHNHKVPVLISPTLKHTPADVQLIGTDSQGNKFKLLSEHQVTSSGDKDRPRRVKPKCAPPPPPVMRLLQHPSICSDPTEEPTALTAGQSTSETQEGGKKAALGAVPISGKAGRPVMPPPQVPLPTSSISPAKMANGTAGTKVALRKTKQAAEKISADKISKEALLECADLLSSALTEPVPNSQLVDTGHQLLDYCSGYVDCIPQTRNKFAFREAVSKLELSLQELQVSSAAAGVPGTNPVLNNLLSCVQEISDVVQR

O=S(=O)(NC1CCC(c2cc(F)ccc2F)(S(=O)(=O)c2ccc(Cl)cc2)CC1)C(F)(F)F (stereo not given) [MRK-560]
active: residual activity [28] 36%
inactive: residual activity [1] 100% | residual activity [2] 88% | residual activity [3] 100% | residual activity [4] 96% | residual activity [5] 92% | residual activity [6] 97% | residual activity [7] 100% | residual activity [8] 87% | residual activity [9] 100% | residual activity [10] 100% | residual activity [11] 100% | residual activity [12] 92% | residual activity [13] 87% | residual activity [14] 100% | residual activity [15] 100% | residual activity [16] 100% | residual activity [17] 96% | residual activity [18] 91% | residual activity [19] 78% | residual activity [20] 76% | residual activity [21] 86% | residual activity [22] 100% | residual activity [23] 94% | residual activity [24] 100% | residual activity [25] 100% | residual activity [26] 93% | residual activity [27] 100% | residual activity [29] 91% | residual activity [30] 60% | residual activity [31] 100% | residual activity [32] 100% | residual activity [33] 100% | residual activity [34] 100% | residual activity [35] 90% | residual activity [36] 83% | residual activity [37] 100% | residual activity [38] 89% | residual activity [39] 100% | residual activity [40] 100% | residual activity [41] 100% | residual activity [42] 91% | residual activity [43] 100% | residual activity [44] 77%

CC(C)(C)OC(=O)N1CCCC1CNC1CCC(c2cc(F)ccc2F)(S(=O)(=O)c2ccc(Cl)cc2)CC1 (stereo not given) [GSI-NC]
21 nM: Ki [45]

— ChEMBL document CHEMBL4507288 (2021)
